Assay results reported in patent US9776965B2, “Pyrrolidin-2-one and piperidin-2-one derivatives as 11-beta hydroxysteroid dehydrogenase inhibitors” (Janssen Pharmaceutica N.V., priority 2004, dated 2017).

How the values were obtained:
[1] = biological target: T1, 11b-HSD1 (Mus musculus, UniProt P50172); assay: Cellular assay, 11b-HSD1 activity in differentiated 3T3-L1 cells; assay type: cell-based; details: 4 hour pre-incubation, read-out: [C2] HSD1 cellular 3T3-L1 Score
T1 construct: Fibroblasts were differentiated into adipocytes; endogenous in cells; host or cells: differentiated 3T3-L1 cells (ATCC-CL-173)
T1 sequence (P50172 whole entry): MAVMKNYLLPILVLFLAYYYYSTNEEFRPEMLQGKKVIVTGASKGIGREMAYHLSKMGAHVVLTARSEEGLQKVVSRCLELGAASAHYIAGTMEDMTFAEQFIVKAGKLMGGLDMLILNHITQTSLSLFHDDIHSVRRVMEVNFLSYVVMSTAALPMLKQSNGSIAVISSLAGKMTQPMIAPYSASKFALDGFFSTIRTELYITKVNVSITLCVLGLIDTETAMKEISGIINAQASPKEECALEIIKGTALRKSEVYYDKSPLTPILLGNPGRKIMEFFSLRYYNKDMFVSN
Method: The effects on 11b-HSD1 activity was measured in differentiated 3T3-L1 cells and rat hepatocytes.
Mouse fibroblast 3T3-L1 cells (ATCC-CL-173) were seeded at a density of 16500 cells/ml in 12 well plates and grown for 7 days in DMEM medium (supplemented with 10% heat inactivated foetal calf serum, 2 mM glutamine and 25 mg gentamycin) at 37 C in a humidified 5% CO2 atmosphere. Medium was refreshed twice a week. Fibroblasts were differentiated into adipocytes at 37 C in a 5% CO2 humidified atmosphere in growth medium containing 2 μg/ml insulin, 55 μg/ml IBMX and 39.2 μg/ml dexamethasone.
Following a 4 hour pre-incubation with test compound, 0.5 μCi ^3H-cortisone or dehydrocorticosterone, was added to the cultures. One hour later, the medium was extracted on Extrelut^3-columns with 15 ml diethyl ether and the extract was analysed by HPLC as described above.
As for the enzymatic assays, the compounds to be tested were taken from a stock solution and tested at a final concentration ranging from […] to 3.10^−9M. From the thus obtained dose response curves, the pIC50 value was calculated and scored as follows; Score 1=pIC50 value<5, Score 2=pIC50 value in the range of 5 to 6, Score 3=pIC50 value>6. Some of the thus obtained results are summarized in the table below (in this table NT stands for Not Tested).

[2] = biological target: 11b-HSD1 (Homo sapiens, UniProt P28845); assay: Enzymatic assay, 11b-HSD1 dependent conversion of cortisone into cortisol (reductase activity); assay type: biochemical; details: recombinant protein, 2 μM cortisone, 45 min at 37 C; read-out: [C1] HSD1-prot Reduct Score
Chain of 11b-HSD1 (Homo sapiens, UniProt P28845) (P28845 whole entry): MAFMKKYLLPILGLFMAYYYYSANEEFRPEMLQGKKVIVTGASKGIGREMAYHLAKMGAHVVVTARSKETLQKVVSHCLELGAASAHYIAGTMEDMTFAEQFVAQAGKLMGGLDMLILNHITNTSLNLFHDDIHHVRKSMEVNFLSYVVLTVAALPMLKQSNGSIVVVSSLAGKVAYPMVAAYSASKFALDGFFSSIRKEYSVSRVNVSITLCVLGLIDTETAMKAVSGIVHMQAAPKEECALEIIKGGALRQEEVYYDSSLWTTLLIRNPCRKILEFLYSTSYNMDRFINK
Method: The effects of compounds on 11b-HSD1 dependent conversion of cortisone into cortisol (reductase activity) was studied in a reaction mixture containing 30 mM Tris-HCl buffer pH 7.2, 180 μM NADPH, 1 mM EDTA, 2 μM cortisone, 1 μl drug and/or solvent and 11 μg recombinant protein in a final volume of 100 μl.
All incubations were performed for 45 min at 37 C in a water bath. The reaction was stopped by adding 100 μl acetonitrile containing 20 μg corticosterone as internal standard. After centrifugation, the product formation was analysed in the supernatant by HPLC on a Hypersyl BDS-C18 column using 0.05 mM ammonium acetate/methanol (50/50) as solvent. In all of the aforementioned assays, the drugs to be tested were taken from a stock solution and tested at a final concentration ranging from […] to 3.10^−9M. From the thus obtained dose response curves, the pIC50 value was calculated and scored as follows; Score 1=pIC50 value<5, Score 2=pIC50 value in the range of 5 to 6, Score 3=pIC50 value>6. (in this table NT stands for Not Tested).

Structure (SMILES)	IC50 [1]	IC50 [2]
O=C1C(Cc2ccc(F)cc2Cl)CCN1CCc1ccccc1 (stereo not shown) [Compound 85]	> 10 µM	1 to 10 µM
O=C1C(Cc2cc3c(cc2Cl)OCO3)CCN1CCc1ccccc1 (stereo not shown) [Compound 86]	< 1 µM	1 to 10 µM
Cc1ccccc1CC1CCCN(CCc2ccccc2)C1=O (stereo not shown) [Compound 87]	1 to 10 µM	> 10 µM
O=C1C(Cc2ccc(F)cc2Cl)CCCN1CCc1ccccc1 (stereo not shown) [Compound 88]	1 to 10 µM	1 to 10 µM
O=C1C(Cc2ccc3c(c2)OCO3)CCN1CCc1ccccc1 (stereo not shown) [Compound 89]	1 to 10 µM	> 10 µM
Cc1ccc([C@@H](O)[C@H]2CCN([C@@H](C)c3ccccc3)C2=O)c(C)c1 [Compound 90]	1 to 10 µM	> 10 µM
Cc1ccc([C@H](O)[C@H]2CCN([C@@H](C)c3ccccc3)C2=O)c(C)c1 [Compound 91]	< 1 µM	1 to 10 µM
COc1ccc(CCN2CCC(Cc3c(Cl)cccc3Cl)C2=O)cc1 (stereo not shown) [Compound 92]	1 to 10 µM	< 1 µM
Cc1ccc(CCN2CCC(Cc3c(Cl)cccc3Cl)C2=O)cc1 (stereo not shown) [Compound 93]	> 10 µM	> 10 µM
CC[C@@H](c1ccccc1)N1CC[C@H](Cc2c(Cl)cccc2Cl)C1=O [Compound 94]	< 1 µM	> 10 µM
CC[C@@H](c1ccccc1)N1CC[C@@H](Cc2c(Cl)cccc2Cl)C1=O [Compound 95]	1 to 10 µM	< 1 µM
CC[C@H](c1ccccc1)N1CC[C@H](Cc2c(Cl)cccc2Cl)C1=O [Compound 96]	> 10 µM	1 to 10 µM
COC[C@H](c1ccccc1)N1CC[C@H](Cc2c(Cl)cccc2Cl)C1=O [Compound 98]	1 to 10 µM	> 10 µM
COC[C@H](c1ccccc1)N1CC[C@@H](Cc2c(Cl)cccc2Cl)C1=O [Compound 99]	< 1 µM	< 1 µM
COC[C@@H](c1ccccc1)N1CC[C@H](Cc2c(Cl)cccc2Cl)C1=O [Compound 100]	> 10 µM	1 to 10 µM
COC[C@@H](c1ccccc1)N1CC[C@@H](Cc2c(Cl)cccc2Cl)C1=O [Compound 101]	> 10 µM	> 10 µM
O=C1C(Cc2c(Cl)cccc2Cl)CCN1[C@@H](Cc1ccccc1)c1ccccc1 (stereo partly shown) [Compound 102]	> 10 µM	> 10 µM
O=C1[C@@H](Cc2c(Cl)cccc2Cl)CCN1[C@H](CO)c1ccccc1 [Compound 104]	1 to 10 µM	> 10 µM
O=C1[C@H](Cc2c(Cl)cccc2Cl)CCN1[C@H](CO)c1ccccc1 [Compound 105]	< 1 µM	< 1 µM
O=C1[C@@H](Cc2c(Cl)cccc2Cl)CCN1[C@@H](CO)c1ccccc1 [Compound 106]	> 10 µM	1 to 10 µM

Structure (SMILES)	IC50 [1]	IC50 [2]
O=C1[C@H](Cc2c(Cl)cccc2Cl)CCN1[C@@H](CO)c1ccccc1 [Compound 107]	> 10 µM	1 to 10 µM
O=C1C(Cc2ccc(F)cc2F)CCN1CCc1ccccc1 (stereo not shown) [Compound 108]	1 to 10 µM	1 to 10 µM
COc1cc(CC2CCN(CCc3ccccc3)C2=O)ccc1OCc1ccccc1 (stereo not shown) [Compound 109]	1 to 10 µM	> 10 µM
Cc1ccccc1CC1CCN(CCCc2ccccc2)C1=O (stereo not shown) [Compound 110]	1 to 10 µM	1 to 10 µM
O=C1C(Cc2ccccc2Cl)CCN1CCCc1ccccc1 (stereo not shown) [Compound 111]	1 to 10 µM	1 to 10 µM
O=C1C(Cc2ccc(F)cc2Cl)CCN1CCCc1ccccc1 (stereo not shown) [Compound 112]	1 to 10 µM	1 to 10 µM
Cc1cccc(C)c1CC1CCN(CCCc2ccccc2)C1=O (stereo not shown) [Compound 113]	1 to 10 µM	1 to 10 µM
O=C1C(Cc2c(Cl)cccc2Cl)CCN1CCCc1ccccc1 (stereo not shown) [Compound 114]	< 1 µM	> 10 µM
CC(C)(c1ccccc1)N1CCC(Cc2c(Cl)cccc2Cl)C1=O (stereo not shown) [Compound 115]	< 1 µM	> 10 µM
C[C@@H](c1ccccc1)N1CCC(CCc2cccc3ccccc23)(CCc2cccc3ccccc23)C1=O [Compound 116]	> 10 µM	> 10 µM
C[C@@H](c1ccccc1)N1CC[C@H]([C@@](C)(O)c2ccc(CCBr)cc2)C1=O [Compound 117]	< 1 µM	< 1 µM
C[C@@H](c1ccccc1)N1CC[C@@H]([C@](C)(O)c2ccc(CCBr)cc2)C1=O [Compound 118]	1 to 10 µM	> 10 µM
COc1ccc(C[C@H]2CCN([C@@H](C)c3ccccc3)C2=O)c(Cl)c1OC [Compound 120]	< 1 µM	1 to 10 µM
COc1cc(C[C@@H]2CCN([C@@H](C)c3ccccc3)C2=O)ccc1OCc1ccccc1 [Compound 121]	> 10 µM	> 10 µM
COc1cc(C[C@H]2CCN([C@@H](C)c3ccccc3)C2=O)ccc1OCc1ccccc1 [Compound 122]	1 to 10 µM	1 to 10 µM
COc1ccccc1CC[C@@H]1CCN([C@@H](C)c2ccccc2)C1=O [Compound 123]	1 to 10 µM	1 to 10 µM
COc1ccccc1CC[C@H]1CCN([C@@H](C)c2ccccc2)C1=O [Compound 124]	1 to 10 µM	1 to 10 µM
COc1ccc(CC[C@@H]2CCN([C@@H](C)c3ccccc3)C2=O)cc1OC [Compound 125]	> 10 µM	> 10 µM
COc1ccc(CC[C@H]2CCN([C@@H](C)c3ccccc3)C2=O)cc1OC [Compound 126]	> 10 µM	> 10 µM
Cc1ccccc1CC[C@@H]1CCN([C@@H](C)c2ccccc2)C1=O [Compound 127]	1 to 10 µM	1 to 10 µM

Structure (SMILES)	IC50 [1]	IC50 [2]
Cc1ccccc1CC[C@H]1CCN([C@@H](C)c2ccccc2)C1=O [Compound 128]	1 to 10 µM	1 to 10 µM
C[C@@H](c1ccccc1)N1CC[C@H](CCc2c(F)cccc2Cl)C1=O [Compound 129]	1 to 10 µM	1 to 10 µM
C[C@@H](c1ccccc1)N1CC[C@@H](CCc2ccc(N(C)C)cc2)C1=O [Compound 130]	1 to 10 µM	> 10 µM
C[C@@H](c1ccccc1)N1CC[C@H](CCc2ccc(N(C)C)cc2)C1=O [Compound 131]	1 to 10 µM	> 10 µM
COc1ccc(CC[C@@H]2CCN([C@@H](C)c3ccccc3)C2=O)cc1 [Compound 132]	1 to 10 µM	1 to 10 µM
COc1ccc(CC[C@H]2CCN([C@@H](C)c3ccccc3)C2=O)cc1 [Compound 133]	1 to 10 µM	> 10 µM
C[C@@H](C[C@@H]1CCN([C@@H](C)c2ccccc2)C1=O)c1ccccc1 [Compound 134]	< 1 µM	< 1 µM
C[C@@H](C[C@H]1CCN([C@@H](C)c2ccccc2)C1=O)c1ccccc1 [Compound 135]	< 1 µM	> 10 µM
C[C@H](C[C@@H]1CCN([C@@H](C)c2ccccc2)C1=O)c1ccccc1 [Compound 136]	1 to 10 µM	1 to 10 µM
C[C@H](C[C@H]1CCN([C@@H](C)c2ccccc2)C1=O)c1ccccc1 [Compound 137]	< 1 µM	< 1 µM
CC[C@H](C[C@@H]1CCN([C@@H](C)c2ccccc2)C1=O)c1ccccc1 [Compound 138]	1 to 10 µM	1 to 10 µM
CC[C@@H](C[C@@H]1CCN([C@@H](C)c2ccccc2)C1=O)c1ccccc1 [Compound 139]	< 1 µM	< 1 µM
CC[C@H](C[C@H]1CCN([C@@H](C)c2ccccc2)C1=O)c1ccccc1 [Compound 140]	< 1 µM	> 10 µM
CC[C@@H](C[C@H]1CCN([C@@H](C)c2ccccc2)C1=O)c1ccccc1 [Compound 141]	> 10 µM	< 1 µM
Cc1ccccc1C[C@]1(C)CCN([C@@H](C)c2ccccc2)C1=O [Compound 142]	1 to 10 µM	> 10 µM
Cc1ccccc1C[C@@]1(C)CCN([C@@H](C)c2ccccc2)C1=O [Compound 143]	1 to 10 µM	> 10 µM
CC[C@@]1(Cc2ccccc2C)CCN([C@H](C)c2ccccc2)C1=O [Compound 144]	> 10 µM	> 10 µM
CC[C@]1(Cc2ccccc2C)CCN([C@H](C)c2ccccc2)C1=O [Compound 145]	> 10 µM	> 10 µM
C[C@@H](c1ccccc1)N1CC[C@H](Cc2ccc(F)cc2Cl)C1=O [Compound 150]	< 1 µM	< 1 µM
